Each structure is given as a SMILES string. Bounds are passed on as bounds.

The test system of one assay is K-562. Nature of the assay: Proliferation inhibition (CellTiter-Glo) in K-562 cells. It is filed as cell-based. To be noted: Homo sapiens, K562, 96 h, K-562 CML cells, no FLT3 mutations, IC50 (4 days). In outline:
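The CML line […] (ATCC: CRL-3343) was cultured in RPMI-1640 with 10% heat-inactivated FBS and 1% Pen-Strep at 37° C. Cells were seeded at about 10,000 per 200 μL in 96-well plates, and test compound was dispensed 2 hours later at eight concentrations in duplicate. Viability was measured as ATP luminescence with CellTiter-Glo. Untreated cells (0.2% DMSO) defined 100% proliferation, and IC50 values came from four-parameter logistic fits.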

The next assay has as its system MV-4-11. Put plainly: Proliferation inhibition (CellTiter-Glo) in MV-4-11 cells. The class given is cell-based. To be noted: Homo sapiens, MV4-11, 96 h, MV-4-11 AML cells, homozygous FLT3-ITD, IC50 (4 days). In outline:
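MV-4-11 human AML cells (homozygous FLT3-ITD) grown in RPMI-1640 with 10% heat-inactivated FBS and 1% Pen-Strep were seeded at about 10,000 cells per 200 μL in 96 well plates. Two hours later, compounds were dispensed at eight concentrations in duplicate. Viability was measured by CellTiter-Glo luminescence, and IC50 values came from four-parameter logistic non-linear regression against untreated cells (0.2% DMSO).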
(Cellular ATP, detected with luciferase, serves as a proxy for viable cell number.)

In a further assay the test system is MOLM-13. Put plainly: Proliferation inhibition (CellTiter-Glo) in MOLM-13 cells. It is filed as cell-based. To be noted: Homo sapiens, 96 h, MOLM-13 AML cells, heterozygous FLT3-ITD, IC50 (4 days). Put shortly:
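MOLM-13 human AML cells, heterozygous for FLT3-ITD, were grown in RPMI-1640 with 10% heat-inactivated FBS and 1% Pen-Strep. About 10,000 cells in 200 μL were seeded per well of 96-well plates. After 2 hours, compounds from DMSO stocks were dispensed at eight concentrations in duplicate, with 0.2% DMSO as the untreated control. Viability was read as CellTiter-Glo ATP luminescence, and IC50 was obtained from a four-parameter logistic fit.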

Assay [1] concerns quizartinib-resistant AML. To be noted: Yamaura et al., 2018; cited from earlier work.

Consider `C=CS(=O)(=O)NCC#Cc1cccc(Nc2nc(NC3CCOCC3)c(CC)nc2C(N)=O)c1` [Compound 10, 6-Ethyl-5-((tetrahydro-2H-pyran-4-yl)amino)-3-((3-(3-(vinylsulfonamido)prop-1-yn-1-yl)phenyl)amino)pyrazine-2-carboxamide], for which the IC50 in the assay with K-562 is over 500 nM; with MV-4-11, 100 to 500 nM; with MOLM-13, 100 to 500 nM.

For the compound `CCCNc1nc(Nc2ccc(C#N)cc2)ncc1C#CCCCNC(=O)[C@H](C)N(C)C(=O)/C=C/CN(C)C` [FF-10101], the “activity against quizartinib-resistant AML” value in assay [1] is “demonstrated activity”.

As for `CCc1nc(C(N)=O)c(Nc2cccc(OCCCNC(=O)[C@H](C)N(C)C(=O)/C=C/CN(C)C)c2)nc1OC` [Compound 120, (S,E)-3-((3-(3-(2-(4-(dimethylamino)-N-methylbut-2-enamido)propanamido)propoxy)phenyl)amino)-6-ethyl-5-methoxypyrazine-2-carboxamide], the IC50 in the assay with K-562 is over 500 nM; in the assay with MV-4-11 it was 1 to 10 nM; with MOLM-13, 1 to 10 nM.

Take `CC#CC(=O)NCCC(=O)NCCc1cc(Nc2nc(NC3CCOCC3)c(CC)nc2C(N)=O)cc(OC)c1` [Compound 101, 3-[3-[2-[3-(but-2-ynoylamino)propanoylamino]ethyl]-5-methoxy-anilino]-6-ethyl-5-(tetrahydropyran-4-ylamino)pyrazine-2-carboxamide]: the IC50 with K-562 was over 500 nM; with MV-4-11, 10 to 100 nM; in the assay with MOLM-13 it was 10 to 100 nM.

Consider `CCc1nc(C(N)=O)c(Nc2cccc(OCCCNC(=O)[C@H](C)N(C)C(=O)/C=C/CN(C)C)c2)nc1NC` [Compound 119, (S,E)-3-((3-(3-(2-(4-(dimethylamino)-N-methylbut-2-enamido)propanamido)propoxy)phenyl)amino)-6-ethyl-5 (methylamino)pyrazine-2-carboxamide], for which the concentration for half-maximal inhibition (IC50) with K-562 was over 500 nM; with MV-4-11, 1 to 10 nM; in the assay with MOLM-13, 1 to 10 nM.

`CC#CC(=O)N(C)[C@@H](C)C(=O)NCCc1cc(Nc2nc(NC3CCOCC3)c(CC)nc2C(N)=O)cc(OC)c1` [Compound 111, 3-[3-[2-[[(2S)-2-[but-2-ynoyl(methyl)amino]propanoyl]amino]ethyl]-5-methoxy-anilino]-6-ethyl-5-(tetrahydropyran-4-ylamino)pyrazine-2-carboxamide]: the half-inhibitory concentration (IC50) in the assay with K-562 is over 500 nM; with MV-4-11, 1 to 10 nM; in the assay with MOLM-13, 10 to 100 nM.

As to `C=CC(=O)N(C)CCC(=O)NCCc1cc(Nc2nc(NC3CCOCC3)c(CC)nc2C(N)=O)cc(OC)c1` [Compound 34, 6-Ethyl-3-((3-methoxy-5-(2-(3-(N-methylacrylamido)propanamido)ethyl)phenyl)amino)-5-((tetrahydro-2H-pyran-4-yl)amino)pyrazine-2-carboxamide], the IC50 in the assay on K-562 was over 500 nM; with MV-4-11, 1 to 10 nM; in the assay with MOLM-13, 10 to 100 nM.

For the compound `C=CC(=O)N(C)[C@@H](C)C(=O)NCCCOc1cccc(Nc2nc(NC3CCOCC3)c(CC)nc2C(N)=O)c1` [Compound 36, 6-ethyl-3-[3-[3-[[(2S)-2-[methyl(prop-2-enoyl)amino]propanoyl]amino]propoxy]anilino]-5-(tetrahydropyran-4-ylamino)pyrazine-2-carboxamide], the IC50 was over 500 nM in the assay on K-562, under 1 nM with MV-4-11 and 1 to 10 nM in the assay with MOLM-13.

In the case of `CCc1nc(C(N)=O)c(Nc2cccc(OCCCNC(=O)[C@H](C)N(C)C(=O)/C=C/CN(C)C)c2)nc1N(C)CC` [Compound 146, (S,E)-3-((3-(3-(2-(4-(dimethylamino)-N-methylbut-2-enamido)propanamido)propoxy)phenyl)amino)-6-ethyl-5-(ethyl(methyl)amino)pyrazine-2-carboxamide], the IC50 was over 500 nM in the assay on K-562, under 1 nM in the assay on MV-4-11 and 1 to 10 nM in the assay on MOLM-13.

For the compound `C=CS(=O)(=O)NCCCOc1cccc(Nc2nc(NC3CCOCC3)c(CC)nc2C(N)=O)c1` [Compound 4, 6-Ethyl-5-((tetrahydro-2H-pyran-4-yl)amino)-3-((3-(3-(vinylsulfonamido)propoxy)phenyl)-amino)pyrazine-2-carboxamide], the IC50 in the assay with K-562 was over 500 nM; with MV-4-11, 100 to 500 nM; in the assay on MOLM-13 it was 100 to 500 nM.

As for `CCc1nc(C(N)=O)c(Nc2cccc(CCNC(=O)C(C)(C)N(C)C(=O)/C=C/CN(C)C)c2)nc1C` [Compound 229, (E)-3-((3-(2-(2-(4-(dimethylamino)-N-methylbut-2-enamido)-2-methylpropanamido)ethyl)phenyl)amino)-6-ethyl-5-methylpyrazine-2-carboxamide], the IC50 with K-562, in the assay with MV-4-11 and in the assay with MOLM-13 was over 500 nM throughout.

Turning to `C=CC(=O)N(C)[C@@H](C)C(=O)NCC#Cc1cc(Nc2nc(NC3CCOCC3)c(CC)nc2C(N)=O)cc(OC)c1` [Compound 107, 6-ethyl-3-[3-methoxy-5-[3-[[(2S)-2-[methyl(prop-2-enoyl)amino]propanoyl]amino]prop-1-ynyl]anilino]-5-(tetrahydropyran-4-ylamino)pyrazine-2-carboxamide], the concentration for half-maximal inhibition (IC50) was over 500 nM with K-562, 1 to 10 nM with MV-4-11 and 1 to 10 nM with MOLM-13.

On to `CCc1nc(C(N)=O)c(Nc2cccc(OCCNC(=O)[C@H](C)N(C)C(=O)/C=C/CN(C)C)c2)nc1NC1CCOCC1` [Compound 39, 3-[3-[2-[[(2S)-2-[[(E)-4-(dimethylamino)but-2-enoyl]-methyl-amino]propanoyl]amino]ethoxy]anilino]-6-ethyl-5-(tetrahydropyran-4-ylamino)pyrazine-2-carboxamide], for which the IC50 with K-562 is over 500 nM; with MV-4-11, under 1 nM; with MOLM-13, 1 to 10 nM.

With `C=CC(=O)NCCCC(=O)NCCc1cc(Nc2nc(NC3CCOCC3)c(CC)nc2C(N)=O)cc(OC)c1` [Compound 28, 3-((3-(2-(4-Acrylamidobutanamido)ethyl)-5-methoxyphenyl)amino)-6-ethyl-5-((tetrahydro-2H-pyran-4-yl)amino)pyrazine-2-carboxamide], the IC50 in the assay on K-562 is over 500 nM; in the assay on MV-4-11 it was 100 to 500 nM; with MOLM-13 it was 100 to 500 nM.

For the compound `C[C@@H](C(=O)NCCCOc1cccc(Nc2nc(NC3CCOCC3)c(C3CC3)nc2C(N)=O)c1)N(C)C(=O)/C=C/CN(C)C` [Compound 133, (S,E)-6-cyclopropyl-3-((3-(3-(2-(4-(dimethylamino)-N-methylbut-2-enamido)propanamido)propoxy)phenyl)amino)-5-((tetrahydro-2H-pyran-4-yl)amino)pyrazine-2-carboxamide], the concentration for half-maximal inhibition (IC50) in the assay on K-562 is over 500 nM; in the assay on MV-4-11, under 1 nM; in the assay with MOLM-13, 1 to 10 nM.

In the case of `C#CC(=O)NCCNc1cc(Nc2nc(NC3CCOCC3)c(CC)nc2C(N)=O)ccn1` [Compound 21, 6-Ethyl-3-((2-((2-propiolamidoethyl)amino)pyridin-4-yl)amino)-5-((tetrahydro-2H-pyran-4-yl)amino)pyrazine-2-carboxamide], the 50% inhibitory concentration (IC50) with K-562 was in the range of 100 to 500 nM; with MV-4-11, 10 to 100 nM; in the assay with MOLM-13, 10 to 100 nM.

With `CCc1nc(C(N)=O)c(Nc2cc(F)cc(O[C@H](C)CNC(=O)C(C)N(C)C(=O)/C=C/CN(C)C)c2)nc1N(C)C` (stereo partly drawn) [Compound 155, 5-(dimethylamino)-3-((3-(((2R)-1-(2-((E)-4-(dimethylamino)-N-methylbut-2-enamido)propanamido)propan-2-yl)oxy)-5-fluorophenyl)amino)-6-ethylpyrazine-2-carboxamide], the 50% inhibitory concentration (IC50) with K-562 is over 500 nM; with MV-4-11, 10 to 100 nM; in the assay on MOLM-13, 10 to 100 nM.

Consider `CC#CC(=O)N(C)CCC(=O)NCCc1cc(Nc2nc(NC3CCOCC3)c(CC)nc2C(N)=O)cc(OC)c1` [Compound 35, 3-[3-[2-[3-[but-2-ynoyl(methyl)amino]propanoylamino]ethyl]-5-methoxy-anilino]-6-ethyl-5-(tetrahydropyran-4-ylamino)pyrazine-2-carboxamide], for which the results for the IC50 with K-562, in the assay with MV-4-11 and with MOLM-13 were over 500 nM, 10 to 100 nM and 10 to 100 nM, respectively.

A word on the IC50: it is the concentration at which inhibition is half-maximal. Low values mean greater potency, high ones weaker potency.

The values are drawn from patent US20250136558A1, “PYRAZINE COMPOUNDS AS IRREVERSIBLE INHIBITORS OF FLT3” (BIOMEA FUSION, INC., priority 2021, published 2025).
